Earlier results as cited in patent US5750504A, “Antimicrobial proteins” (Zeneca Agrochemicals, priority 1996, dated 1998).
Where no end group is shown, it is not given here.

Tests used:
fungi = conditions: Rs-AFP-type proteins of WO93/05153; cited from earlier work
[1] = system: hyphae of Fusarium culmorum; conditions: Terras FRG et al, 1992; cited from earlier work

Substance | hyperbranching of fungi (fungi) | hyper-branching of hyphae of Fusarium culmorum [1]
Cb-AMP1: antimicrobial protein capable of isolation from Cnicus benedictus, SEQ ID NO 6 (ELCEKASKTWSGNCGNTKHCDDQCKSWEGAAHGACHVRNGKHMCFCYFNC; ends and bridges not checked; cysteine pairing not given here) | do not | –
Rs-AFP1: antifungal protein from Raphanus sativus seeds, SEQ ID NO 3 (ZKLCERPSGTWSGVCGNNNACKNQCINLEKARHGSCNYVFPAHKCICYFPC) | cause hyperbranching | A similar effect
Dm-AMP1: antimicrobial protein capable of isolation from Dahlia merckii, SEQ ID NO 5 (ELCEKASKTWSGNCGNTGHCDNQCKSWEGAAHGACHVRNGKHMCFCYFNC; ends and bridges not checked; cysteine pairing not given here) | do not | –
Rs-AFP2: antifungal protein from Raphanus sativus seeds, SEQ ID NO 4 (ZKLCQRPSGTWSGVCGNNNACKNQCIRLEKARHGSCNYVFPAHKCICYFPC) | cause hyperbranching | A similar effect
